Consider 2 molecules from US20020081596A1, “Compositions and methods for the identification, assessment, prevention, and therapy of human cancers” (priority 2000, published 2002).

The test system of one test is SK-MEL-28. To be noted: SK-MEL-28, melanoma, TAXOL resistant cell line; cited from earlier work.
The next test has as its system OVCAR-3. The settings on record: OVCAR-3, ovarian, TAXOL sensitive cell line; cited from earlier work.
The subject of the next test is OVCAR-4. The settings on record: OVCAR-4, ovarian, TAXOL resistant cell line; cited from earlier work.
In a further test the test system is EKVX. To be noted: non-small cell lung carcinoma, TAXOL resistant cell line; cited from earlier work.
A further test deals with NCl-H522. To be noted: NCl-H522, non-small cell lung carcinoma, TAXOL sensitive cell line; cited from earlier work.
The test system of test [1] is TAXOL sensitive cancer cell lines. The test can be described thus: Growth inhibition (GI50) by TAXOL, mean of nine sensitive cell lines. Format: cell-based, human. The settings on record: mean of the nine TAXOL sensitive cell lines of Table C. The method, then:
(§1) One group of nine cell lines was determined to be sensitive to TAXOL (Table C), the other group of nine cell lines was determined to be resistant to TAXOL (Table B). Sensitivity to TAXOL was based of known GI50 values for these cells, which for this study was defined as the concentration of TAXOL required to inhibit growth of the cell line by 50%. More precisely, the quantity used in the calculation is the potency measure −log{GI50}. Pooled RNA from TAXOL sensitive cancer cell lines was used as tester against driver RNA pooled from TAXOL resistant cancer cell lines. Pooled RNA from TAXOL resistant cancer cell lines was used as tester against driver RNA pooled from TAXOL sensitive cancer cell lines.

The next test concerns SK-MEL-2. To be noted: SK-MEL-2, melanoma, TAXOL sensitive cell line; cited from earlier work.
In a further test the test system is MALME-3M. The settings on record: melanoma, TAXOL resistant cell line; cited from earlier work.
Another test relates to HT-29. To be noted: HT-29, colon, TAXOL sensitive cell line; cited from earlier work.
For a further test, the system named is MCF-7/AdrRes. The settings on record: breast, TAXOL resistant cell line; cited from earlier work.
The test system of the next test is NCl-H460. To be noted: NCl-H460, non-small cell lung carcinoma, TAXOL sensitive cell line; cited from earlier work.
The subject of a further test is MCF-7. To be noted: MCF-7, breast, TAXOL sensitive cell line; cited from earlier work.
For a further test, the system named is SK-MEL-5. To be noted: SK-MEL-5, melanoma, TAXOL sensitive cell line; cited from earlier work.
A further test relates to HCT-15. The settings on record: HCT-15, colon, TAXOL resistant cell line; cited from earlier work.
The test system of another test is SN12C. The settings on record: renal, TAXOL sensitive cell line; cited from earlier work.
Another test relates to MDA-MB-435. To be noted: MDA-MB-435, breast, TAXOL sensitive cell line; cited from earlier work.
In a further test the test system is ACHN. To be noted: renal, TAXOL resistant cell line; cited from earlier work.
The subject of test [2] is TAXOL resistant cancer cell lines. The test can be described thus: Growth inhibition (GI50) by TAXOL, mean of nine resistant cell lines. It is filed as cell-based, human. To be noted: mean of the nine TAXOL resistant cell lines of Table B. How it is done: as §1
In another test the test system is T-47D. The settings on record: breast, TAXOL resistant cell line; cited from earlier work.
A further test relates to HOP-92. The settings on record: HOP-92, non-small cell lung carcinoma, TAXOL resistant cell line; cited from earlier work.
Another test concerns tumor. To be noted: animal models; cited from earlier work.

As for `CC(=O)O[C@H]1C(=O)[C@@]2(C)[C@H]([C@H](OC(=O)c3ccccc3)[C@]3(O)C[C@H](OC(=O)[C@H](O)[C@@H](NC(=O)c4ccccc4)c4ccccc4)C(C)=C1C3(C)C)[C@]1(OC(C)=O)CO[C@@H]1C[C@@H]2O` [TAXOL], the “Log Gl 50 for TAXOL” value in the test with SK-MEL-28 is −7.1; in the test with OVCAR-4, −6.3; with EKVX it was −6.6; with MALME-3M, −6.8; with MCF-7/AdrRes it was −5.5; in the test with HCT-15, −6.7. Besides, the “Log Gl 50 for TAXOL” value with ACHN is on record as −5.8; in the test on T-47D it was −6.9; in the test on HOP-92, −7.2. For the same molecule, the “Log GI 50 for TAXOL” value in the test with OVCAR-3 is listed as −8.5; with NCl-H522 it was −8.5; in the test with SK-MEL-2, −8.3; with HT-29, −8.6; in the test with NCl-H460 it was −8.5; with MCF-7 it was −8.5. Moreover, the “Log GI 50 for TAXOL” value was −8.4 in the test with SK-MEL-5, −8.5 in the test with SN12C and −8.6 with MDA-MB-435. Further, the “Log GI 50 for TAXOL (Mean)” value in test [1] is −8.5. Besides, the “Log Gl 50 for TAXOL (Mean)” value in test [2] was −6.5.
As for `CC(=O)O[C@@]12CO[C@@H]1C[C@H](O)[C@@]1(C)C(=O)[C@H](O)C3=C(C)[C@@H](OC(=O)[C@H](O)[C@@H](NC(=O)OC(C)(C)C)c4ccccc4)C[C@@](O)([C@@H](OC(=O)c4ccccc4)[C@H]21)C3(C)C` [Taxotere, docetaxel], the anti-tumor activity entry in the test with tumor was “good anti-tumor activity”.
